Measurements published in patent US7361279B2, “Removing metals from solution using metal binding compounds and sorbents therefor” (priority 2002, dated 2008).
Where “and” joins values, the source holds several entries; their conditions need not be identical. Equal values may be shown once.

How the values were obtained:
[1] = Differential pulse polarography, stability constants (DeFord-Hume, Lingane), Pb(II); format: binding
Description: (§1) Such an approach was applied to estimate the strength of metal-benzotriazole interactions in acidic solutions. The current that flows during a single life time of a dropping mercury electrode (DME) is held at a given potential in a polarograph and is described by the Ilkovic Equation: Id=708nDo^1/2C0*m^2/3t^1/6 (2)
(§2) In their classic report, Deford and Hume (1951) defined a series of functions, where the change in reduction potential of a target ion, measured with a polarograph, can be directely related to its complexation stability by the progressive addition of a known ligand.
(§3) Stability constants are obtained as follows where F0(x)=ΣβnCL^n=β0β1CL+β2CL^2+ . . . +βnCL^n (7)
(§4) In order to obtain β1, . . . , βn, a widely-accepted graphical extrapolation method derived by Leden (1941) was applied. Sequential plots of equation (7) (Fn(X) vs. C) yielded a family of curves, through which coordination chemistry between metals and benzotriazoles was determined.
(§5) The maximum coordination number was also independently determined using the Lingane method reported by Crow (1969) with a plot of ΔE1/2 Vs. Log Cx relationship, using the Lingane equation: […]
(§6) βmxj (the overall stability constant), and j (maximum number of ligands coordinated with a metal through a reversible series of complexing interactions), were determined for Cu(II), Pb(II) and Zn(II) interactions with benzotriazoles. The present application reports the development and use of polarographic methods for quantification of benzotriazole complexes to study their potential for immobilizing metals on activated carbon surfaces.
(§7) Polarographic and voltammetric measurements were performed with a CV-50W Voltametric analyzer fitted with a controlled growth mercury electrode; this multimode electrode was used in a static mercury drop electrode (SMDE) mode. The mercury electrode was multiplexed using BAS commercial software (Bioanalytical Systems, Inc., Lafayette, Ind., USA) a platinum auxiliary electrode and an Ag/AgCl (3 M KCl) reference electrode. All potentials were normalized to the Ag/AgCl electrode. A system scan rate of 5 mV s^−1 was used with a drop time of 1 sec. For DPP, the pulse amplitude was 100 mV with a sample width of 17 msec. A repeatable drop size was produced using a borosilicate capillary tube. The solenoid activation setting was 100 ms for all runs.
(§8) For the stability constant calculations, a 15 ml supporting electrolyte solution was pipetted into the voltammetric cell and the metal salt addition was adjusted to yield a final concentration of approximately 10^−5 M. The ligand (5-methybenzotriazole) was then added in increasing concentration from 0 to 1×10^−2 M. Polarograms were constructed, and the shift in the half wave potential was recorded after each ligand addition. All DPP measurements were made in triplicate.

[2] = Differential pulse polarography, stability constants (DeFord-Hume, Lingane), Cu(II); format: binding
Description: as §1, §2, §3, §4, §5, §6, §7, §8

[3] = Differential pulse polarography, Zn(II) complexation; format: binding; settings: DPP, increasing MeBT
Description: as §1, §2, §6
Polarographic and voltammetric measurements were performed with a CV-50W Voltametric analyzer fitted with a controlled growth mercury electrode; this multimode electrode was used in a static mercury drop electrode (SMDE) mode. […]

[4] = Batch microcosm immobilization of lead on Calgon MRX-P GAC
Experimental: (§9) Experiments were executed to bracket a range of MeBT and carbon concentrations near the sorptive capacity of calgon MRX, as judged by Freundlich isotherm modeling (c.a. 49 mg/g). Lead, copper, and zinc were chosen as models to study the complexation behavior and sorptive interactions when MeBT is bound to different transition metals. Different ratios of ligand (MeBT) and metal were chosen based on the coordination stichiometry of MeBT with each metal. The ionic strength was held constant at 0.0 1M, and H2SO4 and HNO3 were used as background electrolytes. Lead, copper and zinc concentrations of 10 mg/L and carbon concentrations of 5 g/L were employed for batch microcosm assays.
(§10) Microcosms used for benzotriazole-metal immobilization experiments on GAC. Microcosms consisted of 250 ml Erlenmeyer flasks containing 75 mls of test solution with and without activated carbon. 75 milliliter aliquots of MeBT solution containing known GAC masses were placed in 250 ml Erlenmeyer flask. The samples were allowed to equilibrate on a shaker table at 15° C. for no more than 24 hours. Following equilibration, the samples were centrifuged and the supernatant was analyzed for both metal and 5-MeBT content. Metal-ligand molar ratios of 1:0, 1:2, 1:10, and 1:30 were employed. Identical experiments were conducted for each metal in the absence of GAC for the same metal: ligand ratios to determine any possible metal removal effects associated with precipitation. The resulting aqueous metal concentrations were measured by DPP and confirmed by inductive coupled plasma/atomic emission spectroscopy (ARL 3410 ICP/AES) in an EPA certified laboratory in the Geology department at University of Colorado. 5-MeBT was measured by both DPP and HPLC methods.

[5] = Batch microcosm immobilization of copper on Calgon MRX-P GAC
Experimental: as §9, §10

[6] = Batch microcosm immobilization of zinc on Calgon MRX-P GAC; settings: pH 3, ligand to metal ratio 30:1, carbon 5 g/L
Experimental: as §9
as §10, with “The samples were allowed to equilibrate on a shaker table at 15° C. for no more than 24 hours.” left out, “Metal-ligand molar ratios of 1:0, 1:2, 1:10, and 1:30 were employed. Identical experiments were conducted for each metal in the absence of GAC for the same metal: ligand ratios to determine any possible metal removal effects associated with precipitation.” left out

[7] = Removal of benzotriazoles from solution by granular activated carbon; format: physicochemical; settings: for soluble 5-MeBT content after exposure to GAC (HPLC): after 24 hours
Experimental: (§11) A spectra-Physics high performance liquid chromatograph (HPLC) fitted with a UV detector (λ=254 nm) was used. 5-MeBT analysis was performed isocratically using two Zorbax Rx-C8 4.6×250 mm columns in series (MacMod Analytical, Inc., Chadds Ford, Pa., USA). The eluent consisted of a phosphate buffer mixed in a 70:30 ratio with HPLC grade acetylnitrile at a flow rate of 1.5 ml/minute with a sample injection volume of 200 μl. All samples were centrifuged at 10,000×g for 5 minutes prior to analysis.
Using simple time-series analysis of soluble methylbenzotriazole, the minimum time required for complete sorption was determined. Each experiment reached equilibrium before 48 hours, using a criteria of no more than 4% change in aqueous concentration during the observation period. Mass balances were used to determine the equilibrium portioning of MeBT in the microcosms system. Aqueous concentration data was used to calculate the amount of MeBT associated with GAC by differences. The equilibrium partioning data were then inverted and log-transformed, and tested against widely-accepted sorption models for “best-fit”.
as §11, with “chromatography” for “chromatograph”, “(HPLC)” for “(HPLC) fitted”, “UV-Vis Detector” for “a UV detector”, “Methylbenzotriazole” for “5-MeBT”
as §10

[8] = Desorption of MeBT from GAC surfaces; format: physicochemical; settings: 30 day period, metal- and benzotriazole-free solutions, pH 2-5, varying ionic strength
Experimental: After sorption, GAC was removed, washed with water, and then transferred to a clean electrolyte solution at different pH (pH 2-4) to investigate the stability of the metal: 5-MeBT complexes once immobilized on activated carbon. After 24 hours of equilibration and at time intervals 0, 7, and 30 days, 5 mls of each sample was centrifuged and analyzed for both metal and 5-MeBT content using both ICP/EAS and HPLC.
The potential for the desorption of MeBT from GAC surfaces was monitored over a 30 day period.

[9] = cited from earlier work
[10] = Pb(II) 3 × 10^−5 M, 5-MeBT 0-7 × 10^−3 M
[11] = [Pb(II)]=3×10^−5M, pH=3, T=25° C.
[12] = Cu(II) 5 × 10^−5 M, 5-MeBT 0-3 × 10^−3 M
[13] = [Cu(II)]=5×10^−5M, pH=2.5, T=25° C.

Structure (SMILES): Cc1ccc2[nH]nnc2c1 [5-MeBT, 5-methylbenzotriazole]
- DeFord-Hume method Log β1 [1, 10]: 3.3
- Lingane method Log βn [1, 10]: 3.8
- Maximum coordination number (ligand: metal ratio) [1, 10]: 1
- β1 from intercept of F1(X) vs. [MeBT] [1, 11]: ~1.8×10^3
- β1 from slope of Fo(X) vs. [MeBT] [1, 11]: ~2.2×10^3
- β (copper complexing agent) [2]: ~10^15
- DeFord-Hume method Log β1 [2, 12]: 12.8
- DeFord-Hume method Log β2 [2, 12]: 15.8
- Lingane method Log βn [2, 12]: 15.8
- Maximum coordination number (ligand: metal ratio) [2, 12]: 2
- β1 (first complex stability) from intercept of F1(X) [2, 13]: ~6×10^12
- β2 (overall stability constant) from slope of F1(X) [2, 13]: ~7×10^15
- β2 from intercept of F2(X) vs. [5-MeBT] [2, 13]: 7×10^15
- potential shift on addition of MeBT to zinc-containing solutions [3]: no potential shifts
- potential shift on addition of MeBT to zinc-containing solutions ([3]; listed as methybenzotriazole): no significant potential shifts
- share of lead sequestered on GAC associated with an MeBT precipitate [4]: approximately 25%
- share of lead sequestered on GAC associated with soluble MeBT complex [4]: ~75%
- Pb(II) removal in the absence of GAC (precipitation) ([4]; pH 2, MeBT to Pb(II) molar ratio 2): approximately 2.5%
- Pb(II) removal in the absence of GAC (precipitation) ([4]; pH 2, MeBT to Pb(II) molar ratio 10): ~6%
- Pb(II) removal in the absence of GAC (precipitation) ([4]; pH 2, MeBT to Pb(II) molar ratio 30): ~12%
- precipitation-associated Pb(II) removal ([4]; pH 3, absence of GAC): about 20%
- Pb(II) removal efficiency, maximum ([4]; pH 3, ligand to metal ratio approximately 30:1, carbon 5 g/L): 82%
- share of copper sequestered on GAC associated with an MeBT precipitate ([5]; pH 2): almost none
- Cu(II) removal efficiency, maximum ([5]; pH 2, ligand to metal ratio 30:1, carbon 5 g/L): 13%
- share of copper removal associated with an MeBT precipitate ([5]; pH 3): approximately 18%
- Cu(II) removal ([5]; pH 3, MeBT to Cu(II) molar ratios of 2, 10 and 30): 32-35%
- share of copper removal associated with an MeBT precipitate ([5]; pH 4): ~40%
- Zn(II) removal efficiency, maximum [6]: 9%
- time to sorption equilibrium ([7]; 1% GAC w/vol, 10-2000 mg/L MeBT, no more than 4% change criterion): < 48 h
- affinity for granular activated carbon compared with benzene ([7]; Calgon MRX 10×30 mesh, pH 2 to 5): approximately the same as that observed for benzene
- soluble 5-MeBT content after exposure to GAC (HPLC) ([7]; copper microcosms): less than 0.25 mg/L
- soluble 5-MeBT content after exposure to GAC (HPLC) ([7]; lead microcosms): less than 0.25 mg/L
- soluble 5-MeBT content after exposure to GAC (HPLC) ([7]; zinc microcosms): less than 0.25 mg/L
- desorption of 5-MeBT from saturated Calgon MRX-P [8]: did not liberate measurable amounts
- first pKa (dissociation) [9]: ~2 and 2
- second pKa (dissociation) [9]: ~9
- pKa ([9]; weak organic acid): approximately 8.8
